Measured values: patent US20080132466A1, “Blood Cholesterol Reducing Oral Composition” (priority 2005, published 2008)

System: Wister-ST male rats
Test: Total plasma cholesterol lowering effect of DFA and isoflavone in combination, rats fed for 19 days
Type: in vivo
Conditions: 1.5% in isoflavone-containing feed
Text: A total plasma cholesterol lowering effect was studied using DFA and an isoflavone in combination.
After preliminary feeding 21 Wister-ST male rats (6 weeks of age) a non-isoflavone feed for 3 days, the animals were divided into 3 groups (each n=7) by a body weight stratification procedure and were individually fed for 19 days a basal feed containing 0.25% food product supplemented with 40% isoflavone (basal diet group), a feed in which cellulose in the basal feed was replaced with 1.5% (final) DFA III (DFA III group), and a feed in which cellulose in the basal feed was replaced with 1.5% (final) fructooligosaccharide (FOS group), as shown in Table 1. On the 20th day, blood samples were taken from the abdominal aorta to obtain plasma by centrifugation and the total plasma cholesterol was measured using an automatic analyzer (DRI-CHEM 3500, Fuji Film Medical).
In the table, figures with different alphabets, a and b, denote that there is a significant difference between the figures. […] The level of HDL cholesterol was slightly low in the DFA III group; however, the differences between the groups were not significant.

OC[C@H]1O[C@@]2(CO[C@]3(CO)O[C@H](CO)[C@@H](O)[C@@H]3O2)[C@@H](O)[C@@H]1O [DFA III, difructose anhydride]
level of HDL cholesterol (in words) (differences between groups not significant): slightly low | total serum cholesterol level compared to the group fed an isoflavone alone (in words) (p=0.051 (Sheffe) basal diet vs DFA III): tended to be lowered
